This is an account of results in patent US7579374B2, “Agent for improving bone metabolism” (The Nisshin OilliO Group, Ltd., priority 2001, dated 2009).

One test relates to MC3T3-E1 cells. The experiment in a line: Alkaline phosphatase (ALP) activity of osteoblasts in cell culture system. It is filed as cell-based, mice. To be noted: 2.5 μM; cultivation over one week; control 71.6 ± 4.6. The source says: (§1) In such a system, the osteoblasts are proliferated and the activity of osteoblasts is increased. Therefore, any influence of a substance on the osteoblast-formation can be evaluated by determining, for instance, the rate of cell proliferation and the alkaline phosphatase (ALP) activity as an activity parameter.
(§2) In this Example, there were examined the effects of the chain isoprenoid fatty acid esters on the differentiation and calcium-accumulation of MC3T3-E1 cells or the osteoblasts derived from the skull-caps of mice. A culture medium was added to a 6-well plate in an amount of 2 mL/well, a desired number of MC3T3-E1 cells was inoculated on the medium and the cells were cultivated in a 10% fatal bovine serum-containing base culture liquid (α-MEM, available from Gibco Company) at 37° C. in an atmosphere of 5% CO2. On the day subsequent to the initiation of the cultivation, the culture medium was replaced with the fresh one and simultaneously a solution containing each test sample (the chain isoprenoid fatty acid esters obtained in Preparation Examples 1 to 9) was admixed with and added to the culture medium in an amount of 10 μM for the determination of the cell growth rate and 2.5 μM for the determination of the alkali phosphatase (ALP) activity and the cultivation was continued. The cells for the cell growth rate determination were recovered after 3 days from the initiation of the cultivation and the number of viable cells was counted to determine the cell growth rate. Regarding the other cells, the medium was replaced with fresh one on 5th day of cultivation, the test sample-containing solution was again added and the alkali phosphatase (ALP) activity was determined after the cultivation over one week.
In these experiments, there was used a kit for Alkaline Phospha K-Test WAKO (available from WAKO Pure Chemical Co., Ltd.). A sample used was a suspension of cells obtained by cultivating the same in the presence of each test substance added. A substrate (150 μL) was added to 10 μL of each sample followed by heating at 37° C. for 15 minutes, the addition of 150 μL of a color-developing liquid and determination of the absorbance at 570 nm. The ALP activity corresponding to each absorbance thus measured was determined using a calibration curve prepared in advance.
For `CC1=CC(=O)c2ccccc2C1=O` [Vitamin K3, reference compound], the “ALP Act.” value amounted to 91.2 ± 11.0 KA-U/well.
Turning to Farnesyl Eicosapentaenoate, the “ALP Act.” value was 85.4 ± 8.4 KA-U/well.
Regarding Geranyl Eicosapentaenoate, the “ALP Act.” value came to 87.2 ± 10.6 KA-U/well.
Take Geranyl-Geranyl Conjugated Linoleate: the “ALP Act.” value came out at 88.3 ± 4.8 KA-U/well.
Regarding Geranyl-Geranyl Docosahexaenoate, the “ALP Act.” value was 89.8 ± 6.1 KA-U/well.
Take Phytyl Eicosapentaenoate: the “ALP Act.” value worked out at 114.6 ± 7.7 KA-U/well.

Staying with this test, now noted: 2.5 μM; one week.
For the compound `CC1=CC(=O)c2ccccc2C1=O` [Vitamin K3, reference compound], the “Judged Efficacy (ALP, t-test relative to the control)” value is reported as “◯ (The test substance shows an inhibitory effect (p < 0.05))”.
On the same count and under the same terms, in the case of Farnesyl Eicosapentaenoate it was “◯ (The test substance shows an inhibitory effect (p < 0.05))”; in that of Geranyl Eicosapentaenoate, “◯ (The test substance shows an inhibitory effect (p < 0.05))”; in that of Geranyl-Geranyl Conjugated Linoleate, “⊚ (The test substance shows a considerable inhibitory effect (p < 0.01))”.
In the case of Geranyl-Geranyl Docosahexaenoate, the “Judged Efficacy (ALP, t-test relative to the control)” value was “⊚ (The test substance shows a considerable inhibitory effect (p < 0.01))”.
Regarding Phytyl Eicosapentaenoate, the “Judged Efficacy (ALP, t-test relative to the control)” value is reported as “⊚ (The test substance shows a considerable inhibitory effect (p < 0.01))”.

The next test deals with osteoclasts. The experiment in a line: Bone absorption-inhibitory action in cell co-cultivation system (TRACP activity). It is filed as cell-based, mice. Further details: key to Judged Efficacy (TRACP, t-test relative to the control): ⊚: The test substance shows a considerable inhibitory effect (p < 0.01); ◯: The test substance shows an inhibitory effect (p < 0.05); Δ: The test substance shows only slight or no inhibitory effect (there is not observed any significant difference); X: The test substance shows a bone absorption-promoting effect (there is observed a negativesignificant difference). To be noted: 10 μM test substance; 2 weeks. The source says:
The cell co-culture system used herein means a system in which osteoblasts and hematopoietic cells are subjected to co-culture in the presence of a factor for promoting the formation of osteoclasts and which thus easily permits the analysis of the differentiation process of the osteoclasts (Endocrinology, 1988, 123: 2600-2602). In such a system, osteoclasts are formed and therefore, the degree of osteoclast-formation can be evaluated by the determination of a tartaric acid-resistant acid phosphatase (TRACP) activity in the cell layer as the parameter indicative of the osteoclast.
The test for the confirmation of the bone absorption-inhibitory action of the isoprenoid ester was carried out according to the method disclosed in the literature (Endocrinology, 1988, 123: 2600). The method will be outlined below:
Stroma cells collected from the skull-caps of two-week-old mice according to the method disclosed in the literature (Endocrinology, 1988, 123: 2600) were dispersed in a 10% fetal bovine serum-containing culture base liquid (α-MEM; available from Gibco Company) to a cell density of 5×10^4 cells/mL.
Spleen cells collected from the spleen of 6-week-old ddy male mice according to the method disclosed in the literature (Proc. Natl. Acad. Sci. USA, 1983, 80: 5583) were dispersed in a 10% fetal bovine serum-containing culture base liquid (α-MEM; available from Gibco Company) to a cell density of 5×10^5 cells/mL.
The co-cultivation was carried out in a 5% CO2-containing atmosphere at a temperature of 37° C. using a 10% FBS (fetal bovine serum)-containing culture base liquid (α-MEM; available from Gibco Company). Osteoblast cells were inoculated on a 24-well petri dish at a cell density of 5×10^4 cells/mL/well, spleen cells were then inoculated thereon at a cell density of 5×10^5 cells/mL/well after one day and a solution of a test substance, which had been dissolved in DMSO in a concentration of 10^-2M, was then added to each well in such a manner that the concentration of the test substance was equal to 10 μM. These cells were cultivated in the presence of 10 nM Calcitriol and 100 nM Dexamethasone over 2 weeks while defining the day on which the spleen cells were inoculated as 0th day. In this respect, the culture medium was replaced with fresh one twice a week. After two weeks, the activity of the tartrate-resistant acid phosphatase (hereunder referred to as “TRACP”) in the cell layer was determined, which served as a parameter indicating the number of osteoclasts in the layer.
In the determination of the TRACP activity, there was used a kit of acid phosphatase KII-WAKO (available from WAKO Pure Chemical Co., Ltd.). The culture medium was removed from the Petri dish, 500 μL each of a substrate was added to each well, the resulting cell suspension was heated at 37° C. for 15 minutes, followed by the addition of 500 μL each of a color developing liquid and the determination of the absorbance at a wavelength of 570 nm. The TRACP activity corresponding to each absorbance thus measured was determined using a calibration curve prepared in advance.
`CC1=CC(=O)c2ccccc2C1=O` [Vitamin K3, reference compound]: the “Judged Efficacy (TRACP, t-test relative to the control)” value is recorded as “◯ (The test substance shows an inhibitory effect (p < 0.05))”.
On to Farnesyl Eicosapentaenoate, for which the “Judged Efficacy (TRACP, t-test relative to the control)” value is “Δ”.
Take Geranyl Eicosapentaenoate: the “Judged Efficacy (TRACP, t-test relative to the control)” value is “Δ”.
In the case of Geranyl-Geranyl Docosahexaenoate, the “Judged Efficacy (TRACP, t-test relative to the control)” value is given as “⊚ (The test substance shows a considerable inhibitory effect (p < 0.01))”.
On the same count and under the same terms, in the case of Phytyl Eicosapentaenoate it was “◯ (The test substance shows an inhibitory effect (p < 0.05))”.

The test is the same for the next values; noted with them: 10 μM test substance; co-culture 2 weeks with 10 nM Calcitriol and 100 nM Dexamethasone; control 102.8 ± 12.6.
Turning to `CC1=CC(=O)c2ccccc2C1=O` [Vitamin K3, reference compound], the “TRACP Act.” value is given as 87.9 ± 10.2 KA-U/well.
As to Farnesyl Eicosapentaenoate, the “TRACP Act.” value is given as 96.9 ± 12.7 KA-U/well.
For Geranyl Eicosapentaenoate, the “TRACP Act.” value is 87.4 ± 10.3 KA-U/well.
For Geranyl-Geranyl Docosahexaenoate, the “TRACP Act.” value came to 18.5 ± 5.8 KA-U/well.
On the same count and under the same terms, in the case of Phytyl Eicosapentaenoate it was 84.2 ± 7.1 KA-U/well.

For another test, the system named is MC3T3-E1 cells. Description: Cell growth rate of osteoblasts in cell culture system. The test is classed as cell-based, mice. To be noted: 10 μM; viable cells after 3 days; relative to control defined as 100.
Source text: as §1, §2
The cell growth rate was calculated as a value relative to the cell growth rate observed for the control (free of any added test sample), which was defined to be 100.
As for `CC1=CC(=O)c2ccccc2C1=O` [Vitamin K3, reference compound], the “Cell Growth Rate” value came to 0.0%.
Turning to Farnesyl Eicosapentaenoate, the “Cell Growth Rate” value was 115.6%.
For the compound Geranyl Eicosapentaenoate, the “Cell Growth Rate” value turned out to be 121.4%.
For Geranyl-Geranyl Conjugated Linoleate, the “Cell Growth Rate” value is 120.1%.
Consider Geranyl-Geranyl Docosahexaenoate, for which the “Cell Growth Rate” value came out at 104.8%.
As to Phytyl Eicosapentaenoate, the “Cell Growth Rate” value was determined as 123.4%.
